One data set addresses CYP1A2 (Homo sapiens (Human), UniProt P05177). Briefly: in vitro. The data set is classed as in vitro ADME. Conditions: microsomes; for IC50: 10 min. Here is the method: (§1) Human liver microsomes containing cytochrome P450 (0.253 mg/mL protein) were incubated with test compounds (0.05-50 μM), CYPs substrates (10 μM […], 5 μM diclofenac, 30 μM mephenytoin, 5 μM dextromethorphan hydrobromide and 2 μM midazolam) and 1.0 mM NADP at 37° C. for 10 min. Naphthoflavone, sulfaphenazole, N-3-benzylnirvanol, quinidine and ketoconazole were used as reference inhibitors.

In the next data set the target is GHSR-1a (Homo sapiens (Human), UniProt Q92847). Briefly: Agonistic activity for GHSR-1a, FLIPR calcium assay. The data set is classed as cell-based. Conditions: agonist activity assay, Flp In-CHO-GHSR Stable Pool cells, FLIPR calcium 6 kit; read-out: The activity (IC50) of polypeptide compounds for GHSR-1a.
The next data set concerns the target CYP 2C9 (Homo sapiens (Human), UniProt P11712). The data set is classed as in vitro ADME. Conditions: microsomes, 10 min. On the procedure:
as §1

In the next data set the target is CYP 3A4 (Homo sapiens (Human), UniProt P08684). The class given is in vitro ADME. To be noted: microsomes, 10 min. On the procedure: as §1
The target of a further data set is CYP 2D6 (Homo sapiens (Human), UniProt P10635). The class given is in vitro ADME. Conditions: microsomes, 10 min. On the procedure: as §1
The next data set has as its target CYP 2C19 (Homo sapiens (Human), UniProt P33261). The class given is in vitro ADME. To be noted: microsomes, 10 min. On the procedure: as §1

SMILES strings stand for the structures. Starred links: 1 amine or outer side, 2 acyl side, 3 side chain; linkers in the order of their positions; H or OH if unused. Non-standard residues stand in square brackets, D forms with d. Residues, ends and D or L forms follow the SMILES beside them. *: point of attachment. Azetidine3carboxylic = O=C(C1CN([*:1])C1)[*:2]; Pyrrolidine3carbonyl(3S) = O=C([C@H]1CCNC1)*; dBta = N[C@H](Cc1csc2ccccc12)C(=O)O; dTle = CC(C)(C)[C@@H](N)C(=O)O; Ac4c(3-oxa) = NC1(C(=O)O)COC1; X1 = N[C@H]1CCC[C@H]1C(=O)*; X2 = O=C(C12CNC[C@@H]1C2)*; Api = NC1(C(=O)O)CCNCC1; dAze = O=C(O)[C@H]1CCN1; Abu = CC[C@H](N)C(=O)O; X3 = NCC1(C(=O)*)CCC1; βAla = NCCC(=O)O

Sequence of CYP 3A4 (P08684 whole entry): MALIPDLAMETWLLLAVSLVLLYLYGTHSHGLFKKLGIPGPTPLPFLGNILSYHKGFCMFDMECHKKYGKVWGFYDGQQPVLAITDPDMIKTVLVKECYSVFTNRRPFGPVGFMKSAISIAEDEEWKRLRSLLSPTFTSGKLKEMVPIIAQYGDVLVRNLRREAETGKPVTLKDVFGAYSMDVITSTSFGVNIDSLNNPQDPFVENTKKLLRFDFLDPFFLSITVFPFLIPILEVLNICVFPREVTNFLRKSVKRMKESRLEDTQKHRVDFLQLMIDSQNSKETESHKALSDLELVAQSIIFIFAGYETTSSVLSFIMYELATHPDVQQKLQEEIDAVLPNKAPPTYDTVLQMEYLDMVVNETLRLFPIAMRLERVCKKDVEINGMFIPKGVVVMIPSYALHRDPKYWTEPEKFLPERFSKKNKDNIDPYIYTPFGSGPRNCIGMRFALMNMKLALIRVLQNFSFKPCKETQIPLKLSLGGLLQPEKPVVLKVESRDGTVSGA
Sequence of GHSR-1a (Q92847 whole entry): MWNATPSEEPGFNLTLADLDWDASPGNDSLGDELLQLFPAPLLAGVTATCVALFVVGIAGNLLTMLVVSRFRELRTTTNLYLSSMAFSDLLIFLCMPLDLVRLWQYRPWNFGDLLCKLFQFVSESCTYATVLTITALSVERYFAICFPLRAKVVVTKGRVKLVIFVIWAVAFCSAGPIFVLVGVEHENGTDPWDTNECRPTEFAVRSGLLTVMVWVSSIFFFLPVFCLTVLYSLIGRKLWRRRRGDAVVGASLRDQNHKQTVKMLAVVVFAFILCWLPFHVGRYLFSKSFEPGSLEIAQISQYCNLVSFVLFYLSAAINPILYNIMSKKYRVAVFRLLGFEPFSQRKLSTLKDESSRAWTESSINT
Sequence of CYP 2C19 (P33261 whole entry): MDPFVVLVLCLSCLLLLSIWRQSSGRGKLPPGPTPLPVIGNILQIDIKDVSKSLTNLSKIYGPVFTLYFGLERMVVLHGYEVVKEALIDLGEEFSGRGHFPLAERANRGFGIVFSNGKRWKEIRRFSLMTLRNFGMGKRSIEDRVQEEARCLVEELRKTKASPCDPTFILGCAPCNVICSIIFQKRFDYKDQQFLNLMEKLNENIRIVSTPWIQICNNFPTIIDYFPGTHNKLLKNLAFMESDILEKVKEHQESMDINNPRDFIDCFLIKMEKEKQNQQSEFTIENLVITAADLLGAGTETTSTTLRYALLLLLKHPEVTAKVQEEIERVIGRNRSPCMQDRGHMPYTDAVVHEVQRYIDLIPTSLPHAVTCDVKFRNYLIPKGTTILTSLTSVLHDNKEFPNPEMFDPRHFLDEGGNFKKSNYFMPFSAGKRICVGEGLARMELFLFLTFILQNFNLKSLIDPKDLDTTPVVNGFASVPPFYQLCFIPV
Sequence of CYP1A2 (P05177 whole entry): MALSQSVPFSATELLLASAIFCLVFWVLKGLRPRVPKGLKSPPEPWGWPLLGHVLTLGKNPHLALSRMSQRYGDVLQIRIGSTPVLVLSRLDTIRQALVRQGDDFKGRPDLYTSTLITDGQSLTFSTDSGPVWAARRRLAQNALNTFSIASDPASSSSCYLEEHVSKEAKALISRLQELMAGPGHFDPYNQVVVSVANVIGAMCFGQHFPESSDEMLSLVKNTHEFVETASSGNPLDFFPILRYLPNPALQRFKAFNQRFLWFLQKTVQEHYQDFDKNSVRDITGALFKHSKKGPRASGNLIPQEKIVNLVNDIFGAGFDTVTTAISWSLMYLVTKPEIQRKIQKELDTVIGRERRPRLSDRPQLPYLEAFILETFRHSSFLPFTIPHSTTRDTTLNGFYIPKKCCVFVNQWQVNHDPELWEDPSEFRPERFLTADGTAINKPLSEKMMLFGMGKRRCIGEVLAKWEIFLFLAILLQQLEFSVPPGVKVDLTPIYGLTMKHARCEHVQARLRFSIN
Sequence of CYP 2C9 (P11712 whole entry): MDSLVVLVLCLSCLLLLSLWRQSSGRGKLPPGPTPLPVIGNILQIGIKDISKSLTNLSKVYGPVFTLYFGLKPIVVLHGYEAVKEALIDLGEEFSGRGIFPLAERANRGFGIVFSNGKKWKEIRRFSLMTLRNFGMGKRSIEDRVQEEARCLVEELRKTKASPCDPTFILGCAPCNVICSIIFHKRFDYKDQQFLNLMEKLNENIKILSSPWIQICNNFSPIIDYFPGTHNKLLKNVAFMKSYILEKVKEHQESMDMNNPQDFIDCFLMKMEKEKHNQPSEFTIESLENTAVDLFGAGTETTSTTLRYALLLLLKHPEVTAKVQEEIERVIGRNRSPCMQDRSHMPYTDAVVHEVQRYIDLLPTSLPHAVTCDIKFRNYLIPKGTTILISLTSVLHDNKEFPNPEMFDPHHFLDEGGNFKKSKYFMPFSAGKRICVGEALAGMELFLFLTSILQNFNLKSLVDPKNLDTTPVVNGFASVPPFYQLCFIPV
Sequence of CYP 2D6 (P10635 whole entry): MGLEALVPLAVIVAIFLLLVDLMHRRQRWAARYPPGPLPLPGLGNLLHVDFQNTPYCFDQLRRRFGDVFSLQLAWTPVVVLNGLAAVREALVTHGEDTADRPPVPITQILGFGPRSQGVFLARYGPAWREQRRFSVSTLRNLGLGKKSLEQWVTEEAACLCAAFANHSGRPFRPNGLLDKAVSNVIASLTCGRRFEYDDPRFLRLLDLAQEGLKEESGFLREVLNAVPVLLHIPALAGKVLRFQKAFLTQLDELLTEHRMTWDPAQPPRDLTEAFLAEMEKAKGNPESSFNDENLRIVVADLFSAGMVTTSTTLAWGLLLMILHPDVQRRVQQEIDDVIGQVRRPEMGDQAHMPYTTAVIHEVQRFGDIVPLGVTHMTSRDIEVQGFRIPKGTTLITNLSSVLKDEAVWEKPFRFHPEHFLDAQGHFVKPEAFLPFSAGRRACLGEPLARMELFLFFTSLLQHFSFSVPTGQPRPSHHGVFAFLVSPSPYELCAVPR

As usually defined, the IC50 is the midpoint of a concentration-inhibition curve. For `NC(=O)C1(NC(=O)[C@H](Cc2ccccc2)NC(=O)[C@@H](Cc2c[nH]c3ccccc23)NC(=O)[C@@H](Cc2csc3ccccc23)NC(=O)C23CNC[C@@H]2C3)CCNCC1` (stereo partly drawn) [Compound 30] (X2-[dBta][dW]F[Api]-NH2), the IC50 against CYP1A2 is > 50 µM; at GHSR-1a, 0.0134 µM; on CYP 2C9, > 50 µM; against CYP 3A4, > 50 µM; against CYP 2D6, > 50 µM; at CYP 2C19, > 50 µM.
Consider `NC(=O)C1(NC(=O)[C@H](Cc2ccccc2)NC(=O)[C@@H](Cc2c[nH]c3ccccc23)NC(=O)[C@@H](Cc2csc3ccccc23)NC(=O)[C@H]2CCN2)CCNCC1` [Compound 25] (H-[dAze][dBta][dW]F[Api]-NH2), for which the IC50 at CYP1A2 was > 50 µM; at GHSR-1a, 0.0181 µM; on CYP 2C9, > 50 µM; against CYP 3A4 it was > 50 µM; on CYP 2D6, > 50 µM; against CYP 2C19, > 50 µM.
As for `CC[C@H](N)C(=O)N[C@H](Cc1csc2ccccc12)C(=O)N[C@H](Cc1c[nH]c2ccccc12)C(=O)N[C@@H](Cc1ccccc1)C(=O)N[C@H](CCCCN)C(N)=O` [Compound 33] (H-[Abu][dBta][dW]F[dK]-NH2), the IC50 is > 50 µM on CYP1A2; 0.0031 µM on GHSR-1a; > 50 µM against CYP 2C9; > 50 µM against CYP 3A4; > 50 µM against CYP 2D6; > 50 µM on CYP 2C19.
In the case of `C[C@@H](N)C(=O)N[C@H](Cc1csc2ccccc12)C(=O)N[C@H](Cc1c[nH]c2ccccc12)C(=O)N[C@@H](Cc1ccccc1)C(=O)NC1(C(N)=O)CCNCC1` [Compound 12] (H-[dA][dBta][dW]F[Api]-NH2), the IC50 at CYP1A2 was > 50 µM; at GHSR-1a, 0.0537 µM; against CYP 2C9 it was > 50 µM; at CYP 3A4, > 50 µM; against CYP 2D6, > 50 µM; against CYP 2C19, > 50 µM.
Regarding `NCCCC[C@@H](NC(=O)[C@H](Cc1ccccc1)NC(=O)[C@@H](Cc1c[nH]c2ccccc12)NC(=O)[C@@H](Cc1csc2ccccc12)NC(=O)C1(N)COC1)C(N)=O` [Compound 54] (H-[Ac4c(3-oxa)][dBta][dW]F[dK]-NH2), the IC50 on CYP1A2 was > 50 µM; on GHSR-1a, 0.0139 µM; against CYP 2C9 it was > 50 µM; against CYP 3A4 it was > 50 µM; against CYP 2D6, > 50 µM; against CYP 2C19, > 50 µM.
`CC(C)(C)[C@@H](N)C(=O)N[C@H](Cc1csc2ccccc12)C(=O)N[C@H](Cc1c[nH]c2ccccc12)C(=O)N[C@@H](Cc1ccccc1)C(=O)N[C@H](CCCCN)C(N)=O` [Compound 47] (H-[dTle][dBta][dW]F[dK]-NH2): the IC50 was > 50 µM on CYP1A2; 0.0107 µM on GHSR-1a; > 50 µM against CYP 2C9; > 50 µM against CYP 3A4; > 50 µM against CYP 2D6; > 50 µM against CYP 2C19.
As to `NC(=O)C1(NC(=O)[C@H](Cc2ccccc2)NC(=O)[C@@H](Cc2c[nH]c3ccccc23)NC(=O)[C@@H](Cc2csc3ccccc23)NC(=O)[C@@H]2CCC[C@@H]2N)CCNCC1` [Compound 21] (X1-[dBta][dW]F[Api]-NH2), the IC50 at CYP1A2 was > 50 µM; on GHSR-1a, 0.023 µM; at CYP 2C9, > 50 µM; against CYP 3A4, > 50 µM; at CYP 2D6, > 50 µM; at CYP 2C19, > 50 µM.
Take `NC(=O)[C@H](Cc1ccccc1)NC(=O)[C@@H](Cc1c[nH]c2ccccc12)NC(=O)[C@@H](Cc1csc2ccccc12)NC(=O)[C@@]12CNC[C@@H]1C2` [Compound 80]: on CYP1A2, the IC50 at 10 min was > 50 µM. The IC50 on GHSR-1a was 0.0351 µM; at CYP 2C9, > 50 µM; against CYP 3A4, > 50 µM; against CYP 2D6, > 50 µM; against CYP 2C19, > 50 µM.
Consider `NCCCC[C@@H](NC(=O)[C@H](Cc1ccccc1)NC(=O)[C@@H](Cc1c[nH]c2ccccc12)NC(=O)[C@@H](Cc1csc2ccccc12)NC(=O)C1(CN)CCC1)C(N)=O` [Compound 52] (X3-[dBta][dW]F[dK]-NH2), for which the IC50 is > 50 µM against CYP1A2; 0.0038 µM on GHSR-1a; > 50 µM at CYP 2C9; > 50 µM against CYP 3A4; > 50 µM against CYP 2D6; > 50 µM against CYP 2C19.
Turning to `NC(=O)C1(NC(=O)[C@H](Cc2ccccc2)NC(=O)[C@@H](Cc2c[nH]c3ccccc23)NC(=O)[C@@H](Cc2csc3ccccc23)NC(=O)C2CNC2)CCNCC1` [Compound 23] (Azetidine3carboxylic-[dBta][dW]F[Api]-NH2), the IC50 at CYP1A2 is > 50 µM; on GHSR-1a, 0.0033 µM; against CYP 2C9, > 50 µM; at CYP 3A4 it was > 50 µM; on CYP 2D6, > 50 µM; against CYP 2C19, > 50 µM.
Take `NCCCC[C@@H](NC(=O)[C@H](Cc1ccccc1)NC(=O)[C@@H](Cc1c[nH]c2ccccc12)NC(=O)[C@@H](Cc1csc2ccccc12)NC(=O)CCN)C(N)=O` [Compound 46] (H-[βAla][dBta][dW]F[dK]-NH2): the IC50 against CYP1A2 is > 50 µM; on GHSR-1a it was 0.0028 µM; against CYP 2C9 it was > 50 µM; against CYP 3A4, > 50 µM; against CYP 2D6, > 50 µM; against CYP 2C19 it was > 50 µM.
`NC(=O)C1(NC(=O)[C@H](Cc2ccccc2)NC(=O)[C@@H](Cc2c[nH]c3ccccc23)NC(=O)[C@@H](Cc2csc3ccccc23)NC(=O)[C@H]2CCNC2)CCNCC1` [Compound 26] ({Pyrrolidine3carbonyl(3S)}-[dBta][dW]F[Api]-NH2): the 50% inhibitory concentration (IC50) against CYP1A2 was > 50 µM; on GHSR-1a, 0.0195 µM; against CYP 2C9, > 50 µM; against CYP 3A4 it was > 50 µM; against CYP 2D6, > 50 µM; on CYP 2C19 it was > 50 µM.
`NC(=O)C1(NC(=O)[C@H](Cc2ccccc2)NC(=O)[C@@H](Cc2c[nH]c3ccccc23)NC(=O)[C@@H](Cc2csc3ccccc23)NC(=O)C2(N)COC2)CCNCC1` [Compound 24] (H-[Ac4c(3-oxa)][dBta][dW]F[Api]-NH2): the IC50 at CYP1A2 was > 50 µM; on GHSR-1a it was 0.0054 µM; against CYP 2C9, > 50 µM; against CYP 3A4, > 50 µM; on CYP 2D6, > 50 µM; at CYP 2C19 it was > 50 µM.
Turning to `NC(=O)[C@H](Cc1ccccc1)NC(=O)[C@@H](Cc1c[nH]c2ccccc12)NC(=O)[C@@H](Cc1csc2ccccc12)NC(=O)[C@H]1CNCCO1` [Compound 77], the IC50 at 10 min at CYP1A2 was > 50 µM. Also, the IC50 is 0.0136 µM at GHSR-1a; > 50 µM against CYP 2C9; > 50 µM against CYP 3A4; > 50 µM at CYP 2D6; > 50 µM against CYP 2C19.
In the case of `NCC1(C(=O)N[C@H](Cc2csc3ccccc23)C(=O)N[C@H](Cc2c[nH]c3ccccc23)C(=O)N[C@@H](Cc2ccccc2)C(N)=O)CCC1` [Compound 72], the concentration for half-maximal inhibition (IC50) at 10 min on CYP1A2 was > 50 µM. For the same molecule, the IC50 on GHSR-1a was 0.004 µM; against CYP 2C9, > 50 µM; against CYP 3A4, > 50 µM; on CYP 2D6 it was > 50 µM; against CYP 2C19, > 50 µM.
Regarding `CC[C@H](N)C(=O)N[C@H](Cc1csc2ccccc12)C(=O)N[C@H](Cc1c[nH]c2ccccc12)C(=O)N[C@@H](Cc1ccccc1)C(=O)NC1(C(N)=O)CCNCC1` [Compound 3] (H-[Abu][dBta][dW]F[Api]-NH2), the IC50 is > 50 µM on CYP1A2; 0.0172 µM at GHSR-1a; > 50 µM at CYP 2C9; > 50 µM against CYP 3A4; > 50 µM against CYP 2D6; > 50 µM against CYP 2C19.

The values above are taken from patent US20240158438A1, “POLYPEPTIDE COMPOUND AND APPLICATION THEREOF” (CHENGDU SINTANOVO BIOTECHNOLOGY CO., LTD., priority 2021, published 2024).
